Patent US8865734B2 (priority 2010, dated 2014)
≈ marks a conversion by molar mass, not a printed value.

Experiments:
[1] = test system: in vitro grown Mycobacteria (M. tuberculosis); test: QUM: Quantification of in vitro grown Mycobacteria (in vitro growth fluorescence assay); assay type: cell-based; settings: Mycobacterium tuberculosis; MIC, 80% bacterial growth inhibition; in vitro growth; read-out: QUM
Summary of the method: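 Mycobacterium tuberculosis grown in vitro was quantified by fluorescence across compound dose responses. MIC is defined as the minimum concentration producing 80% growth inhibition.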

[2] = test system: M. tuberculosis inside the host macrophage; test: QIM: Quantification of Intracellular Mycobacteria (intracellular growth assay, phenotypic cell-based); settings: Mycobacterium tuberculosis; MIC, 80% bacterial growth inhibition; intracellular growth; read-out: QIM
Summary of the method: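 Phenotypic high-content assay measuring M. tuberculosis multiplication inside host macrophages, run as dose response. MIC is the minimum compound concentration giving 80% bacterial growth inhibition.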

Compound | melting point | MIC [1] | MIC [2]
CCc1nc2cc(Cl)ccn2c1C(=O)NCc1ccc(N2C=CC(=O)CC2)cc1 [Compound 270, 7-Chloro-2-ethyl-N-(4-(4-oxo-3,4-dihydropyridin-1(2H)-yl)benzyl)imidazo[1,2-a]pyridine-3-carboxamide] | 201.3 to 202.8 °C | > 20 µM | > 20 µM
CCc1nc2cc(Cl)ccn2c1C(=O)NCc1ccc(N2CCN(c3ccc(F)cc3)CC2)cc1 [Compound 176, 7-Chloro-2-ethyl-N-(4-(4-(4-fluorophenyl)piperazin-1-yl)benzyl)imidazo[1,2-a]pyridine-3-carboxamide] | 212 to 213 °C | < 1 µM | < 1 µM
CCc1nc2ccc(Cl)cn2c1C(=O)NCc1ccc(C(F)(F)F)cc1 [Compound 147, 6-Chloro-2-ethyl-N-(4-(trifluoromethyl)benzyl)imidazo[1,2-a]pyridine-3-carboxamide] | 179 to 180 °C | < 1 µM | < 1 µM
CCc1nc2ccc(Cl)cn2c1C(=O)NCc1ccc(N2CCCC2)cc1 [Compound 211, 6-Chloro-2-ethyl-N-(4-(pyrrolidin-1-yl)benzyl)imidazo[1,2-a]pyridine-3-carboxamide] | 222 to 223 °C | < 1 µM | < 1 µM
CCc1nc2cc(Cl)ccn2c1C(=O)NCc1ccc(N2CCC(COC)CC2)cc1 [Compound 282, 7-Chloro-2-ethyl-N-(4-(4-(methoxymethyl)piperidin-1-yl)benzyl)imidazo[1,2-a]pyridine-3-carboxamide] | 172.5 °C | < 1 µM | < 1 µM
CCc1nc2ccc(Cl)cn2c1C(=O)NCC1CCN(Cc2ccc(F)cc2)CC1 [Compound 227, 6-Chloro-2-ethyl-N-((1-(4-fluorobenzyl)piperidin-4-yl)methyl)imidazo[1,2-a]pyridine-3-carboxamide] | 176 to 177 °C | 1 to 20 µM (≈ 0.429 to 8.58 µg/mL) | < 1 µM
CCc1nc2cc(C)ccn2c1C(=O)NCc1ccc2ccccc2c1 [Compound 69, 2-Ethyl-7-methyl-N-(naphthalen-2-ylmethyl)imidazo[1,2-a]pyridine-3-carboxamide] | 192 °C | 1 to 20 µM (≈ 0.343 to 6.87 µg/mL) | < 1 µM
CCc1nc2ccc(Cl)cn2c1C(=O)NCc1ccc(N2CCC3CCCCC3C2)cc1 (stereo not drawn) [Compound 267, 6-Chloro-2-ethyl-N-(4-(octahydroisoquinolin-2(1H)-yl)benzyl)imidazo[1,2-a]pyridine-3-carboxamide] | 141.7 °C | < 1 µM | < 1 µM
CCc1nc2ccc(Cl)cn2c1C(=O)NCCc1ccc(Cl)cc1 [Compound 158, 6-Chloro-N-(4-chlorophenethyl)-2-ethylimidazo[1,2-a]pyridine-3-carboxamide] | 158 to 159 °C | < 1 µM | < 1 µM
CCc1nc2cc(Cl)ccn2c1C(=O)NCc1ccc(Oc2ccc(F)cc2)nc1 [Compound 193, 7-Chloro-2-ethyl-N-((6-(4-fluorophenoxy)pyridin-3-yl)methyl)imidazo[1,2-a]pyridine-3-carboxamide] | 167 to 167.6 °C | < 1 µM | < 1 µM
CCc1nc2ccc(Cl)cn2c1C(=O)NCc1ccc(Oc2ccc(Cl)cc2)cc1 [Compound 190, 6-Chloro-N-(4-(4-chlorophenoxy)benzyl)-2-ethylimidazo[1,2-a]pyridine-3-carboxamide] | 159 to 160.7 °C | < 1 µM | < 1 µM
CCc1nc2cnccn2c1C(=O)NCc1ccc(OC(F)(F)F)cc1 [Compound 155, 2-Ethyl-N-(4-(trifluoromethoxy)benzyl)imidazo[1,2-a]pyrazine-3-carboxamide] | 176 to 177 °C | > 20 µM | > 20 µM
CCc1nc2ccc(Cl)cn2c1C(=O)NC1CCN(Cc2ccc(OC(F)(F)F)cc2)CC1 [Compound 229, 6-Chloro-2-ethyl-N-(1-(4-(trifluoromethoxy)benzyl)piperidin-4-yl)imidazo[1,2-a]pyridine-3-carboxamide] | 157 to 158 °C | > 20 µM | > 20 µM
CCc1nc2cc(C)ccn2c1C(=O)NCc1ccc(N2CCOCC2)cc1 [Compound 68, 2-Ethyl-7-methyl-N-(4-morpholinobenzyl)imidazo[1,2-a]pyridine-3-carboxamide] | 190 °C | 1 to 20 µM (≈ 0.378 to 7.57 µg/mL) | < 1 µM
CCc1nc2cc(Cl)ccn2c1C(=O)NCc1ccc(N2CC(C)OC(C)C2)cc1 (stereo not drawn) [Compound 210, 7-Chloro-N-(4-(2,6-dimethylmorpholino)benzyl)-2-ethylimidazo[1,2-a]pyridine-3-carboxamide] | 165 to 166 °C | 1 to 20 µM (≈ 0.427 to 8.54 µg/mL) | < 1 µM
CCc1nc2c(F)cccn2c1C(=O)NCc1ccc(N2CCOCC2)cc1 [Compound 317, 2-Ethyl-8-fluoro-N-(4-morpholinobenzyl)imidazo[1,2-a]pyridine-3-carboxamide] | 197.3 °C | < 1 µM | < 1 µM
CCc1nc2cc(Cl)ccn2c1C(=O)NCc1ccc(Oc2ccc(Cl)cc2)cc1 [Compound 191, 7-Chloro-N-(4-(4-chlorophenoxy)benzyl)-2-ethylimidazo[1,2-a]pyridine-3-carboxamide] | 167.1 to 167.9 °C | < 1 µM | < 1 µM
CCc1nc2cc(Cl)ccn2c1C(=O)NCc1ccc(N2CCN(Cc3ccc(F)cc3)CC2)cc1 [Compound 172, 7-Chloro-2-ethyl-N-(4-(4-(4-fluorobenzyl)piperazin-1-yl)benzyl)imidazo[1,2-a]pyridine-3-carboxamide] | 141 to 142 °C | < 1 µM | < 1 µM
CCc1nc2ccc(Cl)cn2c1C(=O)N(C)Cc1ccc(N2CCN(c3ccc(F)cc3)CC2)cc1 [Compound 182, 6-Chloro-2-ethyl-N-(4-(4-(4-fluorophenyl)piperazin-1-yl)benzyl)-N-methylimidazo[1,2-a]pyridine-3-carboxamide] | 148 to 149 °C | < 1 µM | 1 to 20 µM (≈ 0.506 to 10.1 µg/mL)
CCc1nc2cc(C)ccn2c1C(=O)NCc1ccc(N2CCN(c3ccc(F)cc3)CC2)cc1 [Compound 309, 2-Ethyl-N-(4-(4-(4-fluorophenyl)piperazin-1-yl)benzyl)-7-methylimidazo[1,2-a]pyridine-3-carboxamide] | 203.7 °C | < 1 µM | < 1 µM
CCc1nc2ccc(F)cn2c1C(=O)NCc1ccc(N2CCN(c3ccc(F)cc3)CC2)cc1 [Compound 306, 2-Ethyl-6-fluoro-N-(4-(4-(4-fluorophenyl)piperazin-1-yl)benzyl)imidazo[1,2-a]pyridine-3-carboxamide] | 200.9 °C | < 1 µM | < 1 µM
CCc1nc2cc(Cl)ccn2c1C(=O)NCc1ccc(N2CCC(c3ccc(F)cc3)CC2)cc1 [Compound 287, 7-Chloro-2-ethyl-N-(4-(4-(4-fluorophenyl)piperidin-1-yl)benzyl)imidazo[1,2-a]pyridine-3-carboxamide] | 182.7 °C | < 1 µM | < 1 µM
CCc1nc2ccc(Cl)cn2c1C(=O)NCc1ccc(N2CCC(c3ccc(F)cc3)CC2)cc1 [Compound 286, 6-Chloro-2-ethyl-N-(4-(4-(4-fluorophenyl)piperidin-1-yl)benzyl)imidazo[1,2-a]pyridine-3-carboxamide] | 164 °C | < 1 µM | < 1 µM
CCc1nc2ccccn2c1C(=O)NCc1ccc(N2CCN(c3ccc(OC(F)(F)F)cc3)CC2)cc1 [Compound 181, 2-Ethyl-N-(4-(4-(4-(trifluoromethoxy)phenyl)piperazin-1-yl)benzyl)imidazo[1,2-a]pyridine-3-carboxamide] | 178 to 179 °C | < 1 µM | < 1 µM
CCc1nc2ccc(Cl)cn2c1C(=O)NCc1ccc(N2CCN(c3ccc(OC(F)(F)F)cc3)CC2)cc1 [Compound 178, 6-Chloro-2-ethyl-N-(4-(4-(4-(trifluoromethoxy)phenyl)piperazin-1-yl)benzyl)imidazo[1,2-a]pyridine-3-carboxamide] | 206.5 to 207 °C | < 1 µM | < 1 µM
CCc1nc2ccccn2c1C(=O)NCc1ccc(N2CCC(COc3ccc(F)cc3)CC2)cc1 [Compound 295, 2-Ethyl-N-(4-(4-((4-fluorophenoxy)methyl)piperidin-1-yl)benzyl)imidazo[1,2-a]pyridine-3-carboxamide] | 144.2 °C | < 1 µM | < 1 µM
CCc1nc2cc(-c3ccncc3)ccn2c1C(=O)NCc1ccc(N2CCOCC2)cc1 [Compound 325, 2-Ethyl-N-(4-morpholinobenzyl)-7-(pyridin-4-yl)imidazo[1,2-a]pyridine-3-carboxamide] | 210.1 °C | > 20 µM | > 20 µM
CCc1nc2cc(Cl)ccn2c1C(=O)NCc1ccc(C(F)(F)F)cc1 [Compound 148, 7-Chloro-2-ethyl-N-(4-(trifluoromethyl)benzyl)imidazo[1,2-a]pyridine-3-carboxamide] | 196.2 to 196.9 °C | < 1 µM | < 1 µM
CCc1nc2cc(Cl)ccn2c1C(=O)NCc1ccc(N2CC(C)CC(C)C2)cc1 (stereo not drawn) [Compound 217, 7-Chloro-N-(4-(3,5-dimethylpiperidin-1-yl)benzyl)-2-ethylimidazo[1,2-a]pyridine-3-carboxamide] | 181.5 to 182.8 °C | < 1 µM | < 1 µM
CCc1nc2cc(Cl)ccn2c1C(=O)NCC1CCN(Cc2ccc(OC(F)(F)F)cc2)CC1 [Compound 228, 7-Chloro-2-ethyl-N-((1-(4-(trifluoromethoxy)benzyl)piperidin-4-yl)methyl)imidazo[1,2-a]pyridine-3-carboxamide] | 145 to 146 °C | > 20 µM | > 20 µM
